Patent US6737383B1, “Herbicidal oxadiazolidines” (priority 1999, dated 2004)

How the values were obtained:
[1] = test system: redroot pigweed; assay: Test E redroot pigweed; assay type: in vivo, Amaranthus retroflexus; details: Postemergence; for Plant response rating, Redroot pigweed: 0 to 100 scale; for Redroot pigweed plant response rating: Rate 250 g/ha, 0 to 100 scale where 0 is no effect and 100 is complete control
Method: (§1) Compounds evaluated in this test were formulated in a non-phytotoxic solvent mixture which included a surfactant and applied to plants that were in the 1- to 4-leaf stage (postemergence application). A mixture of sandy loam soil and greenhouse potting mix in a 60:40 ratio was used for the postemergence test.
(§2) Plantings of these crops and weed species were adjusted to produce plants of appropriate size for the postemergence test. All plant species were grown using normal greenhouse practices. Crop and weed species include annual bluegrass (Poa annua), blackgrass (Alopecurus myosuroides), black nightshade (Solanum nigra), chickweed (Stellaria media), common poppy (Papaver rhoeas), deadnettle (Lamium amplexicaule), downy brome (Bromus tectorum), field violet (Viola arvensis), galium (Galium aparine), green foxtail (Setaria viridis), Italian ryegrass (Lolium multiflorum), jointed goatgrass (Aegilops cylindrica), kochia (Kochia scoparia), lambsquarters (Chenopodium album), littleseed canarygrass (Phalaris minor), rape (Brassica napus), redroot pigweed (Amaranthus retroflexus), Russian thistle (Salsola kali), scentless chamomile (Matricaria inodora), spring barley (Hordeum vulgare), sugar beet (Beta vulgaris), sunflower (Helianthus annuus), ivyleaf speedwell (Veronica hederaefolia), spring wheat (Triticum aestivum), winter wheat (Triticum aestivum), wild buckwheat (Polygonum convolvulus), wild mustard (Sinapis arvensis), wild oat (Avena fatua), windgrass (Apera spica-venti) and winter barley (Hordeum vulgare).
(§3) Treated plants and untreated controls were maintained in a greenhouse for approximately 21 to 28 days, after which all treated plants were compared to untreated controls and visually evaluated. […] A dash response (-) means no test result.

[2] = test system: black nightshade; assay: Test E black nightshade; assay type: in vivo, Solanum nigra; details: Postemergence; for Plant response rating, Blk nightshade: 0 to 100 scale; for Blk nightshade plant response rating: Rate 250 g/ha, 0 to 100 scale where 0 is no effect and 100 is complete control
Method: as §1, §2, §3

[3] = test system: downy brome; assay: Test E downy brome; assay type: in vivo, Bromus tectorum; details: Preemergence; for Downy brome plant response rating (0 to 100 scale): Rate 250 g/ha
[4] = test system: cotton; assay: Test C postemergence cotton; assay type: in vivo, Gossypium hirsutum; details: 0 to 100 scale, 0 no effect, 100 complete control
Procedure, shortened: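 Greenhouse postemergence test: compound applied in solvent/surfactant formulation to established plants; visual scoring 0–100 against untreated controls after roughly two to three weeks (14–21 days).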

[5] = test system: windgrass; assay: Test E windgrass; assay type: in vivo, Apera spica-venti; details: Preemergence; for Plant response rating, Windgrass: Rate 125 g/ha, 0 to 100 scale (0 no effect, 100 complete control)
[6] = test system: redroot pigweed; assay: Test C postemergence redroot pigweed; assay type: in vivo, Amaranthus retroflexus; details: 0 to 100 scale, 0 no effect, 100 complete control
Method: as §1, with “grown for various periods of time before treatment” for “in the 1- to 4-leaf stage”
(§4) Plantings of these crops and weed species were adjusted to produce plants of appropriate size for the postemergence test. All plant species were grown using normal greenhouse practices. Crop and weed species include arrowleaf sida (Sida rhombifolia), barnyardgrass (Echinochloa crus-galli), cocklebur (Xanthium strumarium), common ragweed (Ambrosia elatior), corn (Zea mays), cotton (Gossypium hirsutum), eastern black nightshade (Solanum ptycanthum), fall panicum (Panicum dichotomiflorum), field bindweed (Convolvulus arvensis), giant foxtail (Setaria faberii), hairy beggarticks (Bidens pilosa), ivyleaf morningglory (Ipomoea hederacea), johnsongrass (Sorghum halepense), ladysthumb smartweed (Polygonum persicaria), lambsquarters (Chenopodium album), large crabgrass (Digitaria sanguinalis), purple nutsedge (Cyperus rotundus), redroot pigweed (Amaranthus retroflexus), soybean (Glycine max), surinam grass (Brachiaria decumbens), velvetleaf (Abutilon theophrasti) and wild poinsettia (Euphorbia heterophylla).
(§5) Treated plants and untreated controls were maintained in a greenhouse for approximately 14, to 21 days, after which all treated plants were compared to untreated controls and visually evaluated. Plant response ratings, summarized in Table C, were based upon a 0 to 100 scale where 0 was no effect and 100 was complete control. A dash response (−) means no test result.

[7] = test system: chickweed; assay: Test E chickweed; assay type: in vivo, Stellaria media; details: Postemergence; for Plant response rating, Chickweed: 0 to 100 scale; for Chickweed plant response rating: Rate 250 g/ha, 0 to 100 scale where 0 is no effect and 100 is complete control
Method: as §1, §2, §3

[8] = test system: jointed goatgrass; assay: Test E jointed goatgrass; assay type: in vivo, Aegilops cylindrica; details: Preemergence; for Jointed goatgra plant response rating (0 to 100 scale): Rate 250 g/ha
[9] = test system: galium; assay: Test E galium; assay type: in vivo, Galium aparine; details: Postemergence; for Plant response rating, Galium: 0 to 100 scale; for Galium plant response rating: Rate 250 g/ha, 0 to 100 scale where 0 is no effect and 100 is complete control
Procedure, shortened: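 Plants were grown under normal greenhouse practice; for postemergence, in sandy loam soil mixed 60:40 with potting mix, treated at the 1- to 4-leaf stage. The compound was in a non-phytotoxic solvent carrying a surfactant. After roughly 21 to 28 days plants were scored visually against untreated plants.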

[10] = test system: Russian thistle; assay: Test E Russian thistle; assay type: in vivo, Salsola kali; details: Preemergence; for Russian thistle plant response rating (0 to 100 scale): Rate 250 g/ha
[11] = test system: sunflower; assay: Test E sunflower; assay type: in vivo, Helianthus annuus; details: Postemergence; for Plant response rating, Sunflower: 0 to 100 scale; for Sunflower plant response rating: Rate 250 g/ha, 0 to 100 scale where 0 is no effect and 100 is complete control
Method: as §2, with “Plantings of these crops and weed species were adjusted to produce plants of appropriate size for the postemergence test.” left out
as §3

[12] = test system: cocklebur; assay: Test C postemergence cocklebur; assay type: in vivo, Xanthium strumarium; details: 0 to 100 scale, 0 no effect, 100 complete control
Method: as §1, with “grown for various periods of time before treatment” for “in the 1- to 4-leaf stage”
as §4, §5

[13] = test system: itchgrass; assay: Test D itchgrass; assay type: in vivo, Rottboellia exaltata; details: Postemergence, 0 to 100 scale
[14] = Rate 125 g/ha, 0 to 100 scale (0 no effect, 100 complete control)
[15] = Rate 16 g/ha, 0 no injury, 100 complete control
[16] = Rate 32 g/ha, 0 no injury, 100 complete control
[17] = Rate 64 g/ha, 0 no injury, 100 complete control
[18] = Rate 125 g/ha, 0 no injury, 100 complete control
[19] = Rate 125 g/ha, 0 is no effect, 100 is complete control
[20] = Rate 500 g/ha, 0 is no effect, 100 is complete control
[21] = Rate 500 g/ha, 0 to 100 scale where 0 is no effect and 100 is complete control

For CC(C)N(C(=O)n1oc(=O)n(C)c1=O)c1ccc(F)cc1 [Compound 138], the “Plant response rating, Redroot pigweed” value ([1]; Rate 125 g/ha) was 20, the “Redroot pigweed plant response rating” value [1] was 10 and the “Plant response rating, Blk nightshade” value ([2]; Rate 125 g/ha) was 20. The “Blk nightshade plant response rating” value [2] was 60, the “Plant response rating, Downy brome” value [3, 14] was 90 and the “Downy brome plant response rating (0 to 100 scale)” value [3] was 90. The “Plant response rating Cotton” value ([4]; Rate 140 g/ha) was 5, the “Plant response rating Cotton” value ([4]; Rate 280 g/ha) was 30 and the “Plant response rating Cotton” value ([4]; Rate 560 g/ha) was 40. For the same compound, the “Plant response rating Cotton” value ([4]; Rate 1120 g/ha) was 70, the “Plant response rating, Windgrass” value [5] was 100 and the “Windgrass plant response rating (0 to 100 scale)” value ([5]; Rate 250 g/ha) was 100. The “Plant response rating, Redroot pigweed” value ([6]; Rate 140 g/ha) was 0, the “Plant response rating, Redroot pigweed” value ([6]; Rate 280 g/ha) was 10 and the “Plant response rating, Redroot pigweed” value ([6]; Rate 560 g/ha) was 40. The “Plant response rating, Redroot pigweed” value ([6]; Rate 1120 g/ha) was 70, the “Plant response rating, Chickweed” value ([7]; Rate 125 g/ha) was 0 and the “Chickweed plant response rating” value [7] was 0. For the same compound, the “Plant response rating, Jointed goatgra” value [8, 14] was 65, the “Jointed goatgra plant response rating (0 to 100 scale)” value [8] was 80 and the “Plant response rating, Galium” value ([9]; Rate 125 g/ha) was 20. The “Galium plant response rating” value [9] was 50, the “Plant response rating, Russian thistle” value [10, 14] was 10 and the “Russian thistle plant response rating (0 to 100 scale)” value [10] was 20. For the same compound, the “Plant response rating, Sunflower” value ([11]; Rate 125 g/ha) was 0, the “Sunflower plant response rating” value [11] was 0 and the “Plant response rating, Cocklebur” value ([12]; Rate 140 g/ha) was 0. The “Plant response rating, Cocklebur” value ([12]; Rate 280 g/ha) was 0, the “Plant response rating, Cocklebur” value ([12]; Rate 560 g/ha) was 0 and the “Plant response rating, Cocklebur” value ([12]; Rate 1120 g/ha) was 0.

CC(C)N(C(=O)n1oc(=O)n(C2CCCCCC2)c1=O)c1ccc(F)cc1F [Compound 342] was tested, and the “Plant response rating, Itchgrass” value [13, 15] was 0, the “Plant response rating, Itchgrass” value [13, 16] was 0 and the “Plant response rating, Itchgrass” value [13, 17] was 0. For the same compound, the “Plant response rating, Itchgrass” value [13, 18] was 0 and the “Plant response rating, Itchgrass” value ([13]; Rate 250 g/ha) was 0.

With CC(C)N(C(=O)n1oc(=O)n(C2CC2)c1=O)c1ccc(F)cc1 [Compound 242] the “Plant response rating, Redroot pigweed” value ([1]; Rate 62 g/ha) was 0, the “Plant response rating, Redroot pigweed” value [1, 19] was 0 and the “Redroot pigweed plant response rating” value [1] was 0. For the same compound, the “Plant response rating, Redroot pigweed” value [1, 20] was 40, the “Plant response rating, Blk nightshade” value ([2]; Rate 62 g/ha) was 60 and the “Plant response rating, Blk nightshade” value [2, 19] was 30. The “Blk nightshade plant response rating” value [2] was 50, the “Plant response rating, Blk nightshade” value [2, 20] was 75 and the “Plant response rating, Downy brome” value [3, 14] was 70. For the same compound, the “Downy brome plant response rating (0 to 100 scale)” value [3] was 100, the “Plant response rating, Downy brome” value [3, 21] was 100 and the “Plant response rating Cotton” value ([4]; Rate 140 g/ha) was 0. For the same compound, the “Plant response rating Cotton” value ([4]; Rate 280 g/ha) was 20, the “Plant response rating Cotton” value ([4]; Rate 560 g/ha) was 45 and the “Plant response rating Cotton” value ([4]; Rate 1120 g/ha) was 70. For the same compound, the “Plant response rating, Windgrass” value [5] was 100, the “Plant response rating, Redroot pigweed” value ([6]; Rate 140 g/ha) was 0 and the “Plant response rating, Redroot pigweed” value ([6]; Rate 280 g/ha) was 0. For the same compound, the “Plant response rating, Redroot pigweed” value ([6]; Rate 560 g/ha) was 10, the “Plant response rating, Redroot pigweed” value ([6]; Rate 1120 g/ha) was 50 and the “Plant response rating, Chickweed” value ([7]; Rate 62 g/ha) was 0. The “Plant response rating, Chickweed” value [7, 19] was 30, the “Chickweed plant response rating” value [7] was 0 and the “Plant response rating, Chickweed” value [7, 20] was 50. The “Plant response rating, Jointed goatgra” value [8, 14] was 65, the “Jointed goatgra plant response rating (0 to 100 scale)” value [8] was 80 and the “Plant response rating, Jointed goatgra” value [8, 21] was 90. For the same compound, the “Plant response rating, Galium” value ([9]; Rate 62 g/ha) was 0, the “Plant response rating, Galium” value [9, 19] was 20 and the “Galium plant response rating” value [9] was 30. For the same compound, the “Plant response rating, Galium” value [9, 20] was 40, the “Plant response rating, Russian thistle” value [10, 14] was 20 and the “Russian thistle plant response rating (0 to 100 scale)” value [10] was 30. The “Plant response rating, Russian thistle” value [10, 21] was 50, the “Plant response rating, Itchgrass” value [13, 15] was 0 and the “Plant response rating, Itchgrass” value [13, 16] was 0. For the same compound, the “Plant response rating, Itchgrass” value [13, 17] was 40, the “Plant response rating, Itchgrass” value [13, 18] was 80 and the “Plant response rating, Itchgrass” value ([13]; Rate 250 g/ha) was 100. The “Plant response rating, Sunflower” value ([11]; Rate 62 g/ha) was 10, the “Plant response rating, Sunflower” value [11, 19] was 10 and the “Sunflower plant response rating” value [11] was 0. For the same compound, the “Plant response rating, Sunflower” value [11, 20] was 20, the “Plant response rating, Cocklebur” value ([12]; Rate 140 g/ha) was 0 and the “Plant response rating, Cocklebur” value ([12]; Rate 280 g/ha) was 0. The “Plant response rating, Cocklebur” value ([12]; Rate 560 g/ha) was 0 and the “Plant response rating, Cocklebur” value ([12]; Rate 1120 g/ha) was 20.
